Legend:
[1] = system: DRG spheroid monocultures; type: cell-based, rat
[2] = system: DRG(CHR2-GFP)-SCDH(CaMPARI-2) cocultures; assay: Optogenetic DRG photostimulation-induced calcium influx in SCDH recorded by CaMPARI-2; type: cell-based, rat
Method: (§1) AAV1-hSyn-NES-his-CaMPARI2-WPRE-SV40 was a gift from Eric Schreiter (Addgene viral prep #101060-AAV1; http://n2t.net/addgene:101060; […]; http://n2t.net/addgene:58880; RRID:Addgene_5880). Viral particles of both types were added during spheroid formation with a MOI of 200,000. Cultures were seeded and matured for three weeks. Baseline red fluorescence was imaged with both three and ten second exposures prior to photostimulation using a Nikon AZ100 fluorescent microscope (2× magnification plus 5× or 8× digital zoom). […] Post-photostimulation red fluorescence was again imaged with methods identical to baseline imaging. The integrated pixel intensity for a region of interest encompassing each spheroid of interest was quantified in Fiji (ImageJ) and post-photostimulation intensity was normalized to pre stimulation intensity to obtain a final value for fold change in integrated pixel intensity.
(§2) The optogenetic experiments were conducted with between-samples designs. The fold change in red fluorescence before and after photostimulation was compared between control cultures and groups of cultures that received different independent treatments. […]

[3] = system: hPSC-derived nociceptor-dorsal spinal cord cocultures; assay: Evoked response field potential recording in hPSC-derived nociceptor-dorsal spinal cord cocultures; type: cell-based, human
Method: Generation o±3D Spheroid Cultures. Cryogenically preserved human stem-cell derived spinal cord dorsal horn (SCDH) precursor cells were a kind gift from the Randolph Ashton. Cells were rapidly thawed and diluted 1:4 in Neurobasal Medium (Thermo-Fisher Scientific, Waltham, MA). Cells were centrifuged at 300 g for 4 minutes and the supernatant was removed. Cells were then resuspended in neuronal differentiation media comprised of Neurobasal Medium supplemented with 2% v/v B27 supplement (Thermo-Fisher), 1% v/v N2 supplement (Thermo-Fisher), 1% v/v GlutaMAX (Thermo-Fisher), 20 ng/mL human nerve growth factor, 10 ng/mL recombinant human/murine/rat brain derived neurotrophic factor, 10 ng/mL recombinant human glial cell derived neurotrophic factor, 10 ng/mL recombinant human NT-3 (all growth factors from PeproTech, Cranbury, NJ, USA), 1 uM dibutyrl-cAMP (Millipore-Sigma, St. Louis, MO, USA), 10 uM Y-27632 (Abcam, Waltham, MA, USA), 10 uM DAPT (Tocris, Minneapolis, MN, USA), and 1% v/v antibiotic/antimycotic solution (Thermo-Fisher). Cells were plated at 500,000 cells/cm^2 on culture well plates coated with Matrigel (Corning) diluted at 1:100 for six days in neuronal differentiation media changed every-other-day to force terminal neuron differentiation. Cryogenically preserved human stem cell-derived nociceptors were purchased from Anatomic, Inc (Minneapolis, MN, USA). Cells were rapidly thawed, diluted 1:4 in Neurobasal Medium, centrifuged at 300 g for 4 minutes, and the supernatant was removed. Nociceptors were then resuspended in human culture growth media (identical to neuronal differentiation media but lacking DAPT and Y-27632) plated at 80,000 cells/cm^2 in well plates coated with Matrigel diluted at 1:100, allowed to adhere overnight, and washed to remove any dead cell debris. Nociceptor and terminally differentiated SCDH cell cultures were lifted by incubation in Accutase at 37° C. for 15 minutes. The cell suspensions were collected, centrifuged at 300 g for 4 minutes, the supernatant was removed, and both cell types were resuspended in culture growth media. […]

DRG monocultures = assay: CaMPARI-2 recorded calcium influx in DRG monocultures (capsaicin); type: cell-based, rat; details: 10 μM capsaicin for five minutes prior to photostimulation, vs vehicle (0.1% DMSO)
Method: as §1, §2

[4] = system: hPSC-derived nociceptor-SCDH cocultures; type: cell-based, human

NC1=N[C@H](O)[C@H]2[C@H]3O[C@]4(O)O[C@@H]([C@@H](O)[C@@]2(N1)[C@@H]4O)[C@]3(O)CO [tetrodotoxin]
electrically-evoked compound action potentials (CAPs) [1]: completely blocked

O=C(O)CN(CCN(CC(=O)O)CC(=O)O)CC(=O)O [EDTA, ethylenediaminetetraacetic acid]
electrically-evoked compound action potentials (CAPs) [1]: insensitive

N#Cc1cc2c(cc1[N+](=O)[O-])=NC(=O)C(=O)N=2.O.[Na].[Na] [CNQX, 6-Cyano-7-nitroquinoxaline-2,3-dione disodium salt hydrate]
calcium influx in SCDH following optical excitation of DRG tissue [2]: significantly reduced calcium influx | electrically-evoked compound action potentials (CAPs) [1]: insensitive | amplitude of the later negative and positive-going portions of the synaptic waveform [3]: reduced | synaptically evoked activity in dorsal spinal cord tissue following stimulation of afferent nociceptor spheroid [3]: blocks a large portion

COc1cc(CNC(=O)CCCC/C=C/C(C)C)ccc1O [capsaicin]
calcium influx recorded by CaMPARI-2 (fold change in red fluorescence) (DRG monocultures): induced significant calcium influx

CN1CC[C@]23c4c5ccc(O)c4O[C@H]2[C@@H](O)C=C[C@H]3[C@H]1C5.O=S(=O)(O)O [morphine, Morphine sulfate]
late, positive-going portion of the synaptically evoked waveform [3]: prolongs | fully spontaneous burst firing in SCDH spheroid [4]: increases in frequency and amplitude | semi-spontaneous burst firing in SCDH spheroid [4]: increased in frequency

Source: patent publication US20240376427A1, “COMPOSITIONS AND SYSTEMS COMPRISING THREE-DIMENSIONAL NERVE CELL CULTURES AND METHODS OF USING THE SAME” (THE ADMINISTRATORS OF THE TULANE EDUCATIONAL FUND, priority 2021, published 2024)
